Consider 1 compound from PMC7663272, “Discovery of Tricyclic Pyranochromenone as Novel Bruton’s Tyrosine Kinase Inhibitors with In Vivo Antirheumatic Activity” (International Journal of Molecular Sciences, 2020).

One assay has as its target T1, TEC (Homo sapiens, UniProt P42680).
T1 construct: purchased Reaction Biology Corporation
T1 sequence (P42680 1-631): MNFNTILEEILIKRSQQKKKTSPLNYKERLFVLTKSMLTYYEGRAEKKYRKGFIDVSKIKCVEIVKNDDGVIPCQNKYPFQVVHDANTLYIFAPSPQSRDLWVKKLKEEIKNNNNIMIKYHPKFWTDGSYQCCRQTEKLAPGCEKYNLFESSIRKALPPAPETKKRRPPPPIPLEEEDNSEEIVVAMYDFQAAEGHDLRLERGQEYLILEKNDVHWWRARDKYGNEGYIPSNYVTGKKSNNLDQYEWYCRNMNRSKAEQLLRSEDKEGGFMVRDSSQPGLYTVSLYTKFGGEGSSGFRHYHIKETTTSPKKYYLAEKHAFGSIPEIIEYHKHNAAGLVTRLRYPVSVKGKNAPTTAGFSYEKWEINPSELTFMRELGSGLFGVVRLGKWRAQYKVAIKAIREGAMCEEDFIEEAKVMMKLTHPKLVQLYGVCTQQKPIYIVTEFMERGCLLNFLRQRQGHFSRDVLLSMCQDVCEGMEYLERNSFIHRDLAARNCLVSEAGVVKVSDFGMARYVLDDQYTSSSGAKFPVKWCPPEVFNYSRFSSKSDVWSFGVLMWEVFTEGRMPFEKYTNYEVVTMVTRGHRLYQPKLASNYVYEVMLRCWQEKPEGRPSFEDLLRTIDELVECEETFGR
In words: HotSpot kinase enzymatic assay, TEC. The class given is biochemical. As to the method: (§1) Therefore, efforts have focused on developing new compounds with good selectivity profiles. […] Compound 8 was selective against BTK. The biochemical activities of compound 8 differed among TEC family kinases. […] The inhibitory potential of compound 8 differed between members of the EGFR family. […] The inhibitory activity of compound 8 against JAK3 was also low.
(§2) Kinase enzymatic assays for BTK, BMX, TXK, TEC, ITK, EGFR, ERBB2, ERBB4, and JAK3 were performed at Reaction Biology Corporation (www.reactionbiology.com, Malvern, PA, USA) using the HotSpot assay platform. Briefly, specific kinase/substrate pairs and the required cofactors were prepared in a reaction buffer comprising 20 mM HEPES (pH 7.5), 10 mM MgCl2, 1 mM EGTA, 0.02% Brij35, 0.02 mg/mL BSA, 0.1 mM Na3VO4, 2 mM DTT, and 1% DMSO. The compounds were added to the reaction mixture and allowed to incubate. Approximately 20 min later, a mixture of ATP (Sigma-Aldrich, St. Louis, MO, USA) and ^33P ATP (PerkinElmer, Waltham, MA, USA) was added to the reaction mixture at a final concentration of 10 μM. The reactions were performed at room temperature for 120 min; subsequently, the reactions were spotted onto P81 ion exchange filter papers (Whatman Inc., Maidstone, UK). Any unbound phosphate was removed by thoroughly washing the filter papers with 0.75% phosphoric acid. […]

For the next assay, the target named is T2, ITK (Homo sapiens, UniProt Q08881).
T2 construct: purchased Reaction Biology Corporation
T2 sequence (Q08881 1-620): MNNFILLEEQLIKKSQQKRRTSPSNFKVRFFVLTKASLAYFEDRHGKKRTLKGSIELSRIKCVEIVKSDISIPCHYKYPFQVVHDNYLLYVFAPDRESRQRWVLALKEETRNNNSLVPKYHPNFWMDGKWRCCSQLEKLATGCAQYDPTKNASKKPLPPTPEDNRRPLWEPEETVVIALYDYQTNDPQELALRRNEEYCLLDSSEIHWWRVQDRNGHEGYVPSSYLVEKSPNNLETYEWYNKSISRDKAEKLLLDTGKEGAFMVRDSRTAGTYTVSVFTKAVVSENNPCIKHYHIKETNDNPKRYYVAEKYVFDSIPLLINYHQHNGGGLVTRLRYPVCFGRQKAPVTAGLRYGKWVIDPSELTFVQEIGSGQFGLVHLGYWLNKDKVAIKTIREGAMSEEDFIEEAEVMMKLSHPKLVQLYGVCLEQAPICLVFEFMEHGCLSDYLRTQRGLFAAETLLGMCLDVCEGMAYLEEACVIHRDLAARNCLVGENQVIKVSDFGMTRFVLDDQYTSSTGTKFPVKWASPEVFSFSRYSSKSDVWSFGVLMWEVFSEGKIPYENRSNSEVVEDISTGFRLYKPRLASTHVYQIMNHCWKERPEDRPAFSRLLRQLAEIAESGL
In words: HotSpot kinase enzymatic assay, ITK. It counts as biochemical. As to the method: as §1, §2

Assay [1] deals with IL-6 production in LPS-stimulated THP-1 cells. The experiment in a line: LPS-induced IL-6 release in THP-1 cells (ELISA). It counts as cell-based, human. The text has this: BTK plays a critical role in high-affinity IgE receptor (FcεRI) and B cell receptor (BCR) signaling, resulting in the release of proinflammatory cytokines. Therefore, BTK inhibitor treatment can reduce the production of both lymphoid and myeloid cytokines. […] We examined the cellular effects of compound 8 on the production of cytokines IL-6 and TNF-α in LPS-stimulated THP-1 cells. Following treatment with LPS alone or LPS and compound 8, the levels of cytokines secreted by THP-1 cells were assessed (Figure 5). LPS increased the output of proinflammatory cytokines.
THP-1 cells were obtained from the American Type Culture Collection (ATCC, Manassas, VA, USA). The cells were cultured in RPMI-1640 supplemented with 10% FBS, 1% P/S, and 0.05 mM 2-mercaptoethanol and maintained at 37 °C and 5% CO2 in a humidified incubator. Cytokine secretion (hIL-6 and TNF-α) in the culture supernatants of the THP-1 cells was measured using a human cytokine ELISA kit (Abcam). Differentiated THP-1 cells were treated with agents and LPS for 24 h, after which the cell culture media was centrifuged at 2000× g for 10 min to remove debris. Briefly, each sample (50 μL) or standard was mixed with the appropriate detection antibody and incubated for 1 h at room temperature on a plate shaker. […] Subsequently, 100 μL of stop solution was added to each well, and the optical density (OD) was measured at 450 nm. […]
For orientation: In an ELISA, binding on a coated surface is turned into a signal by an enzyme label.

A word on the inhibition: it is the relative decrease from the control value, in per cent. A lower inhibition goes with a response near the control. Consider `C=CC(=O)O[C@H]1Cc2cc3ccc(=O)oc3cc2OC1(C)C` [Compound 8, (7S)-(+)-Acrylic acid, 8,8-dimethyl-2-oxo-6,7-dihydro-2H,8H-pyrano [3,2-g]chromen-7-yl ester], for which, on TEC, the “inhibitory activity against TEC (in words)” value is “moderate activity”. For the same compound, the inhibition at 10 µM was found to be 54.5% against TEC (10 µM, mean of two experiments) and 17.3% against ITK (10 µM, mean of two experiments). Also, the “inhibitory activity against ITK (in words)” value at ITK was “weak inhibitory activity”. Also, the “production of IL-6” value in assay [1] (LPS-stimulated differentiated THP-1 cells, 24 h, ELISA) was “significantly and dose-dependently reduced”. The “inhibitory activity on IL-6 production at 10 μM, compared with ibrutinib” value in assay [1] (compound at 10 μM, ibrutinib at 2 μM) is listed as “comparable with that of ibrutinib at 2 μM”.
